ChEMBL document CHEMBL3352089 (J Med Chem, 2014)

Columns and labels:
[1] = Cytotoxicity against human HepG2 cells assessed as cell viability at 1 uM after 24 hrs by Cell-Titer Glo assay; assay type: cell-based; settings: read-out: Activity
[2] = Cytotoxicity against human HepG2 cells assessed as cell viability at 1 uM after 4 hrs by Cell-Titer Glo assay; assay type: cell-based; settings: read-out: Activity
[3] = Cytotoxicity against human HepG2 cells assessed as cell viability at 10 uM after 4 hrs by Cell-Titer Glo assay; assay type: cell-based; settings: read-out: Activity
[4] = Cytotoxicity against human HepG2 cells assessed as cell viability at 10 uM after 24 hrs by Cell-Titer Glo assay; assay type: cell-based; settings: read-out: Activity
[5] = Cytotoxicity against human HepG2 cells assessed as cell viability at 100 uM after 4 hrs by Cell-Titer Glo assay; assay type: cell-based; settings: read-out: Activity
[6] = tested on: T1, Activin receptor type-1 (Homo sapiens), Q04771 [Q207D]
T1 sequence (whole entry): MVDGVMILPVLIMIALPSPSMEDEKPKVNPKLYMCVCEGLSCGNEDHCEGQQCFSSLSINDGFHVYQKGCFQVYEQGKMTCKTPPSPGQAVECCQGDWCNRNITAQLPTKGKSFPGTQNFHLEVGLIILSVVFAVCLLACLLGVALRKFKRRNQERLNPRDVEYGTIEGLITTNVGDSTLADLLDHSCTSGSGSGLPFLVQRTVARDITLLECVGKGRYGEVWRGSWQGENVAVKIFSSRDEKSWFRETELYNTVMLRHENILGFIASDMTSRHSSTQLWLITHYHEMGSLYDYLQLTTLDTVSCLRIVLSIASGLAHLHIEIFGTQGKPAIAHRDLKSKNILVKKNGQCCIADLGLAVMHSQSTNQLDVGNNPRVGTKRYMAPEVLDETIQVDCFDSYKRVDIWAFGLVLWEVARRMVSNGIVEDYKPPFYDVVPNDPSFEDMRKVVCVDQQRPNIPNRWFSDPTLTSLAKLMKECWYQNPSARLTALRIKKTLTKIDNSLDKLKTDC

[7] = Cytotoxicity against human HepG2 cells assessed as cell viability at 100 uM after 24 hrs by Cell-Titer Glo assay; assay type: cell-based; settings: read-out: Activity

Work on CCN(CC)CCNC(=O)c1c(C)[nH]c(/C=C2\C(=O)Nc3ccc(F)cc32)c1C [SUNITINIB] yielded a viability at 24 h, 1 µM [1] greater than 75%, a viability at 4 h, 1 µM [2] greater than 75% and a viability at 4 h, 10 µM [3] greater than 75%.
Work on c1ccc2c(-c3cnn4cc(-c5ccc(N6CCNCC6)cc5)cnc34)ccnc2c1 yielded a viability at 24 h, 1 µM [1] greater than 75%, a viability at 4 h, 1 µM [2] greater than 75% and a viability at 4 h, 10 µM [3] greater than 75%.
Compound COc1ccc(-c2cc(-c3ccc(N4CCNCC4)cc3)cnc2N)cc1OC has a viability at 24 h, 1 µM [1] greater than 75%, a viability at 24 h, 10 µM [4] greater than 75% and a viability at 4 h, 100 µM [5] greater than 75%. It also gave a viability at 4 h, 1 µM [2] greater than 75% and a viability at 4 h, 10 µM [3] greater than 75%.
Work on COc1cc(OC)cc(-c2cc(-c3ccc(N4CCNCC4)cc3)cnc2N)c1 yielded a viability at 24 h, 1 µM [1] greater than 75%, a viability at 24 h, 10 µM [4] greater than 75% and a viability at 4 h, 1 µM [2] greater than 75%. The viability at 4 h, 10 µM [3] was greater than 75%.
COc1cc(-c2cc(-c3cccc(O)c3)cnc2N)cc(OC)c1OC gave a viability at 24 h, 1 µM [1] greater than 75%, a viability at 24 h, 10 µM [4] greater than 75% and a viability at 4 h, 100 µM [5] greater than 75%. For the same compound, the viability at 4 h, 1 µM [2] was greater than 75%, the ΔTm [6] was 13.2 °C and the viability at 4 h, 10 µM [3] was greater than 75%.
With N#CC[C@H](C1CCCC1)n1cc(-c2ncnc3[nH]ccc23)cn1 [RUXOLITINIB] the viability at 24 h, 1 µM [1] was greater than 75%, the viability at 24 h, 10 µM [4] was greater than 75% and the viability at 4 h, 100 µM [5] was greater than 75%. The viability at 4 h, 1 µM [2] was greater than 75% and the viability at 4 h, 10 µM [3] was greater than 75%.
Compound CCCS(=O)(=O)Nc1ccc(F)c(C(=O)c2c[nH]c3ncc(-c4ccc(Cl)cc4)cc23)c1F [VEMURAFENIB] has a viability at 24 h, 1 µM [1] greater than 75%, a viability at 24 h, 10 µM [4] greater than 75% and a viability at 4 h, 100 µM [5] greater than 75%. For the same compound, the viability at 4 h, 1 µM [2] was greater than 75% and the viability at 4 h, 10 µM [3] was greater than 75%.
With Nc1ncc(-c2ccc(N3CCNCC3)cc2)cc1-c1ccnc2ccccc12 the viability at 24 h, 1 µM [1] was greater than 75%, the viability at 24 h, 10 µM [4] was greater than 75% and the viability at 4 h, 100 µM [5] was greater than 75%. For the same compound, the viability at 4 h, 1 µM [2] was greater than 75% and the viability at 4 h, 10 µM [3] was greater than 75%.
With COc1cc(-c2cc(-c3ccc(N4CCNCC4)cc3)cnc2Cl)cc(OC)c1OC the viability at 24 h, 1 µM [1] was greater than 75%, the viability at 24 h, 10 µM [4] was greater than 75% and the viability at 4 h, 100 µM [5] was greater than 75%. It also gave a viability at 4 h, 1 µM [2] greater than 75% and a viability at 4 h, 10 µM [3] greater than 75%.
Work on COc1cc(-c2cc(-c3cccc(NS(C)(=O)=O)c3)cnc2N)cc(OC)c1OC yielded a viability at 24 h, 1 µM [1] greater than 75%, a viability at 24 h, 10 µM [4] greater than 75% and a viability at 4 h, 100 µM [5] greater than 75%. The viability at 4 h, 1 µM [2] was greater than 75%, the viability at 24 h, 100 µM [7] was greater than 75% and the viability at 4 h, 10 µM [3] was greater than 75%.
CNc1ncc(-c2ccc(N3CCNCC3)cc2)cc1-c1cc(OC)c(OC)c(OC)c1 showed a viability at 24 h, 1 µM [1] greater than 75%, a viability at 24 h, 10 µM [4] greater than 75% and a viability at 4 h, 100 µM [5] greater than 75%. For the same compound, the viability at 4 h, 1 µM [2] was greater than 75% and the viability at 4 h, 10 µM [3] was greater than 75%.
In the case of COc1cc(-c2cc(-c3ccc(N4CCNCC4)cc3)cnc2OC)cc(OC)c1OC, the viability at 24 h, 1 µM [1] is reported as greater than 75%, the viability at 24 h, 10 µM [4] is reported as greater than 75% and the viability at 4 h, 1 µM [2] is reported as greater than 75%. It also gave a viability at 4 h, 10 µM [3] greater than 75%.
With COc1cc(OC)cc(-c2cncc(-c3ccc(N4CCNCC4)cc3)c2)c1 the viability at 24 h, 1 µM [1] was greater than 75%, the viability at 24 h, 10 µM [4] was greater than 75% and the viability at 4 h, 1 µM [2] was greater than 75%. The viability at 4 h, 10 µM [3] was greater than 75%.
Work on Cc1nc(Nc2ncc(C(=O)Nc3c(C)cccc3Cl)s2)cc(N2CCN(CCO)CC2)n1 [DASATINIB] yielded a viability at 24 h, 1 µM [1] greater than 75%, a viability at 4 h, 1 µM [2] greater than 75% and a viability at 4 h, 10 µM [3] greater than 75%.
For COc1cc(-c2cc(-c3ccc(O)cc3)cnc2N)cc(OC)c1OC, the viability at 24 h, 1 µM [1] was greater than 75%, the viability at 24 h, 10 µM [4] was greater than 75% and the viability at 4 h, 100 µM [5] was greater than 75%. It also gave a viability at 4 h, 1 µM [2] greater than 75%, a viability at 24 h, 100 µM [7] greater than 75% and a viability at 4 h, 10 µM [3] greater than 75%.
For COc1cc(-c2cc(-c3ccc(N4CCNCC4)cc3)cnc2N)ccc1Cl, the viability at 24 h, 1 µM [1] was greater than 75%, the viability at 24 h, 10 µM [4] was greater than 75% and the viability at 4 h, 1 µM [2] was greater than 75%. It also gave a viability at 4 h, 10 µM [3] greater than 75%.
With C[C@@H](Oc1cc(-c2cnn(C3CCNCC3)c2)cnc1N)c1c(Cl)ccc(F)c1Cl [CRIZOTINIB] the viability at 24 h, 1 µM [1] was greater than 75%, the viability at 24 h, 10 µM [4] was greater than 75% and the viability at 4 h, 1 µM [2] was greater than 75%. The viability at 4 h, 10 µM [3] was greater than 75%.
